Where “and” joins values, the source holds several entries; their conditions need not be identical. Identical values can stand only once. Inconclusive results and toxic doses are left out.

The source of these data is PubChem BioAssay AID256 (DTP/NCI, 2004).

The test relates to CD2F1 mice, L1210 leukemia ip, survival T/C. As to the kind of experiment: NCI In Vivo Anticancer Drug Screen. Data for tumor model L1210 Leukemia (intraperitoneal) in CD2F1 (CDF1) mice. The settings on record: higher = longer survival. An outline of the steps:
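Vehicle-treated tumor-bearing mice served as controls (C) for compound-treated mice (T). Reported figure is T divided by C.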

The mark [1] stands for this setting: endpoint: mean survival time, dose: 100.0 mg/kg/injection, schedule: Q01DX009 (ip), vehicle: saline with Tween-80.
Setting [2] is: endpoint: mean survival time, dose: 100.0 mg/kg/injection, schedule: Q04DX003 (ip), vehicle: saline with Tween-80.
Setting [3] is: endpoint: mean survival time, dose: 200.0 mg/kg/injection, schedule: Q01DX009 (ip), vehicle: saline with Tween-80.
Where [4] appears, read: endpoint: mean survival time, dose: 200.0 mg/kg/injection, schedule: Q04DX003 (ip), vehicle: saline with Tween-80.
The mark [5] stands for this setting: endpoint: mean survival time, dose: 400.0 mg/kg/injection, schedule: Q04DX003 (ip), vehicle: saline with Tween-80.
Where [6] appears, read: endpoint: mean survival time, dose: 400.0 mg/kg/injection, schedule: Q01DX009 (ip), vehicle: saline with Tween-80.
Setting [7] is: endpoint: mean survival time, dose: 100.0 mg/kg/injection, schedule: Q01DX009 (ip), vehicle: other.
The mark [8] stands for this setting: endpoint: mean survival time, dose: 200.0 mg/kg/injection, schedule: Q01DX009 (ip), vehicle: other.
[9] abbreviates: endpoint: mean survival time, dose: 100.0 mg/kg/injection, schedule: Q04DX002 (ip), vehicle: saline with Tween-80.

`O=S(=O)(O)c1ccc2c(N=Nc3ccccc3[As](=O)(O)O)c(O)c(S(=O)(=O)O)cc2c1`: the T/C under setting [1] was 96 % of control; the T/C under setting [2] is 104 % of control; the T/C under setting [3] is 100 % of control; the T/C under setting [4] was 94 % of control; the T/C under setting [5] is 98 % of control.

Regarding `CCCCCC(=O)N1CCOCC1`, the T/C (endpoint: mean survival time, dose: 25.0 mg/kg/injection, schedule: Q04DX003 (ip), vehicle: saline with Tween-80) is 98 % of control; the T/C (endpoint: mean survival time, dose: 50.0 mg/kg/injection, schedule: Q04DX003 (ip), vehicle: saline with Tween-80) is 98 % of control; the T/C under setting [2] was 104 % of control and 112 % of control; the T/C under setting [4] is 102 % of control; the T/C under setting [5] was 100 % of control.

As to `CC(=O)Nc1ccc(S(=O)(=O)N=C(N)N)cc1`, the T/C was 114 % of control (endpoint: mean survival time, dose: 75.0 mg/kg/injection, schedule: Q04DX002 (ip), vehicle: saline); 100 % of control (endpoint: mean survival time, dose: 150.0 mg/kg/injection, schedule: Q04DX002 (ip), vehicle: saline); 91 % of control (endpoint: mean survival time, dose: 300.0 mg/kg/injection, schedule: Q04DX002 (ip), vehicle: saline).

Regarding `CCOC(=O)CC(=O)C(F)(F)F.CCOC(=O)CC(=O)C(F)(F)F.[Ni]`, the T/C (endpoint: mean survival time, dose: 150.0 mg/kg/injection, schedule: Q01DX001 (ip), vehicle: saline) was 115 % of control.

Regarding `CCOC(=O)c1ncn(C2OC(CO)C(O)C2O)c1N` (configuration not stated), the T/C (endpoint: mean survival time, dose: 12.5 mg/kg/injection, schedule: Q01DX005 (ip), vehicle: water) is 97 % of control; the T/C (endpoint: mean survival time, dose: 25.0 mg/kg/injection, schedule: Q01DX005 (ip), vehicle: water) is 98 % of control; the T/C (endpoint: mean survival time, dose: 50.0 mg/kg/injection, schedule: Q01DX005 (ip), vehicle: water) was 103 % of control; the T/C (endpoint: mean survival time, dose: 100.0 mg/kg/injection, schedule: Q01DX005 (ip), vehicle: water) was 101 % of control; the T/C (endpoint: mean survival time, dose: 200.0 mg/kg/injection, schedule: Q01DX005 (ip), vehicle: water) is 97 % of control.

For the molecule `Cc1cc[n+]([O-])c(N(C(=O)c2ccccc2)C(=O)c2ccccc2)c1`, the T/C was 98 % of control under setting [1]; 95 % of control under setting [2]; 102 % of control under setting [3]; 103 % of control under setting [4]; 107 % of control under setting [6]; 97 % of control under setting [5].

Consider `O=C1C2=C(Nc3cc([N+](=O)[O-])ccc3N2)OC1c1ccccn1` (configuration not stated), for which the T/C was 102 % of control (endpoint: median survival time, dose: 25.0 mg/kg/injection, schedule: Q01DX005 (ip), vehicle: Klucel (hydroxypropylcellulose) (HPC)); 108 % of control (endpoint: median survival time, dose: 50.0 mg/kg/injection, schedule: Q01DX005 (ip), vehicle: Klucel (hydroxypropylcellulose) (HPC)); 108 % of control (endpoint: median survival time, dose: 100.0 mg/kg/injection, schedule: Q01DX005 (ip), vehicle: Klucel (hydroxypropylcellulose) (HPC)).

For `CCCCCCCCCCCC(=O)NC(=S)Nc1ncccn1`, the T/C (endpoint: mean survival time, dose: 100.0 mg/kg/injection, schedule: Q01DX001 (ip), vehicle: other) was 93 % of control; the T/C under setting [7] is 91 % of control and 97 % of control; the T/C (endpoint: mean survival time, dose: 100.0 mg/kg/injection, schedule: Q04DX002 (ip), vehicle: other) is 98 % of control; the T/C (endpoint: mean survival time, dose: 200.0 mg/kg/injection, schedule: Q01DX001 (ip), vehicle: other) was 87 % of control; the T/C under setting [8] was 92 % of control and 93 % of control; the T/C (endpoint: mean survival time, dose: 200.0 mg/kg/injection, schedule: Q04DX002 (ip), vehicle: other) was 102 % of control. The T/C is 93 % of control (endpoint: mean survival time, dose: 400.0 mg/kg/injection, schedule: Q01DX001 (ip), vehicle: other); 92 % of control and 101 % of control (endpoint: mean survival time, dose: 400.0 mg/kg/injection, schedule: Q01DX009 (ip), vehicle: other); 87 % of control (endpoint: mean survival time, dose: 400.0 mg/kg/injection, schedule: Q04DX002 (ip), vehicle: other).

In the case of `[Cl][Sb]([c]1ccccc1)([c]1ccccc1)([c]1ccccc1)[c]1ccccc1`, the T/C is, setting by setting: (endpoint: mean survival time, dose: 4.7 mg/kg/injection, schedule: Q04DX003 (ip), vehicle: saline) 98 % of control; (endpoint: mean survival time, dose: 9.4 mg/kg/injection, schedule: Q04DX003 (ip), vehicle: saline) 102 % of control.

Regarding `CN(C)/C=C(\C#N)C=O`, the T/C reads like this: (endpoint: mean survival time, dose: 18.75 mg/kg/injection, schedule: Q01DX009 (ip), vehicle: saline with Tween-80) 95 % of control; (endpoint: mean survival time, dose: 37.5 mg/kg/injection, schedule: Q01DX009 (ip), vehicle: saline with Tween-80) 101 % of control; (endpoint: mean survival time, dose: 75.0 mg/kg/injection, schedule: Q01DX009 (ip), vehicle: saline with Tween-80) 101 % of control; (endpoint: mean survival time, dose: 75.0 mg/kg/injection, schedule: Q04DX003 (ip), vehicle: saline with Tween-80) 87 % of control.

Take `Cc1cc(=O)cc(C(=O)O)o1`: the T/C was 107 % of control (endpoint: mean survival time, dose: 50.0 mg/kg/injection, schedule: Q01DX009 (ip), vehicle: other); 95 % of control under setting [7]; 93 % of control under setting [8].

With `CC(C)=NNS(=O)(=O)c1ccc(C)cc1`, the T/C is 102 % of control (endpoint: mean survival time, dose: 25.0 mg/kg/injection, schedule: Q01DX009 (ip), vehicle: Klucel (hydroxypropylcellulose) (HPC)); 96 % of control (endpoint: mean survival time, dose: 50.0 mg/kg/injection, schedule: Q01DX009 (ip), vehicle: Klucel (hydroxypropylcellulose) (HPC)); 93 % of control (endpoint: mean survival time, dose: 100.0 mg/kg/injection, schedule: Q01DX009 (ip), vehicle: Klucel (hydroxypropylcellulose) (HPC)); 86 % of control (endpoint: mean survival time, dose: 200.0 mg/kg/injection, schedule: Q01DX009 (ip), vehicle: Klucel (hydroxypropylcellulose) (HPC)); 91 % of control (endpoint: mean survival time, dose: 400.0 mg/kg/injection, schedule: Q01DX009 (ip), vehicle: Klucel (hydroxypropylcellulose) (HPC)).

Take `CC(C)C(Br)C(=O)NCC(=O)O` (configuration not stated): the T/C is 103 % of control under setting [1], 97 % of control under setting [3] and 98 % of control under setting [6].

As for `Nc1nc(N)nc(C(=O)CCC(=O)O)n1`, the T/C by setting is: (endpoint: mean survival time, dose: 50.0 mg/kg/injection, schedule: Q01DX009 (ip), vehicle: saline with Tween-80) 95 % of control; under setting [1], 95 % of control; under setting [3], 95 % of control.

Take `CS(=O)(=O)OCCN(CCOS(C)(=O)=O)c1ccc(N=O)cc1`: the T/C by setting is: (endpoint: mean survival time, dose: 0.25 mg/kg/injection, schedule: Q01DX009 (ip), vehicle: saline) 101 % of control; (endpoint: mean survival time, dose: 0.5 mg/kg/injection, schedule: Q01DX001 (ip), vehicle: saline) 113 % of control; (endpoint: mean survival time, dose: 0.5 mg/kg/injection, schedule: Q01DX005 (ip), vehicle: saline) 103 % of control; (endpoint: mean survival time, dose: 0.5 mg/kg/injection, schedule: Q01DX009 (ip), vehicle: saline) 91 % of control; (endpoint: mean survival time, dose: 1.0 mg/kg/injection, schedule: Q01DX005 (ip), vehicle: saline) 114 % of control; (endpoint: mean survival time, dose: 1.0 mg/kg/injection, schedule: Q04DX003 (ip), vehicle: saline) 97 % of control. Besides, the T/C was 114 % of control (endpoint: mean survival time, dose: 2.0 mg/kg/injection, schedule: Q01DX001 (ip), vehicle: saline); 97 % of control (endpoint: mean survival time, dose: 2.0 mg/kg/injection, schedule: Q04DX003 (ip), vehicle: saline); 234 % of control (endpoint: mean survival time, dose: 7.5 micrograms/kg/injection, schedule: Q03HX024 (ip), vehicle: saline); 115 % of control (endpoint: mean survival time, dose: 31.3 micrograms/kg/injection, schedule: Q03HX024 (ip), vehicle: saline).

Turning to `Cc1ccc2ccccc2[n+]1[O-]`, the T/C under setting [9] was 111 % of control.

`CCOC(=O)C1(C(=O)OCC)C(C)CC(O)N1C(=O)c1ccccc1[N+](=O)[O-]` (configuration not stated): the T/C is 100 % of control (endpoint: mean survival time, dose: 100.0 mg/kg/injection, schedule: Q01DX001 (ip), vehicle: Klucel (hydroxypropylcellulose) (HPC)); 96 % of control (endpoint: mean survival time, dose: 200.0 mg/kg/injection, schedule: Q01DX001 (ip), vehicle: Klucel (hydroxypropylcellulose) (HPC)); 104 % of control (endpoint: mean survival time, dose: 400.0 mg/kg/injection, schedule: Q01DX001 (ip), vehicle: Klucel (hydroxypropylcellulose) (HPC)).

With `CC1=CC(=O)C=C/C1=N/S(=O)(=O)c1ccccc1`, the T/C was 93 % of control (endpoint: mean survival time, dose: 25.0 mg/kg/injection, schedule: Q01DX001 (ip), vehicle: saline with Tween-80); 90 % of control (endpoint: mean survival time, dose: 50.0 mg/kg/injection, schedule: Q01DX001 (ip), vehicle: saline with Tween-80); 97 % of control (endpoint: mean survival time, dose: 100.0 mg/kg/injection, schedule: Q01DX001 (ip), vehicle: saline with Tween-80).

As to `CC(=O)OC1CCC2(C)C(CCC3C2CCC2(C)C3CC3OC(CCC(C)O)C(C)C32)C1` (configuration not stated), the T/C under setting [9] is 86 % of control.

Consider `O=C1C=CC(=NCl)C=C1`, for which the T/C by setting is: (endpoint: mean survival time, dose: 2.5 mg/kg/injection, schedule: Q04DX003 (ip), vehicle: saline with Tween-80) 100 % of control; (endpoint: mean survival time, dose: 5.0 mg/kg/injection, schedule: Q04DX003 (ip), vehicle: saline with Tween-80) 110 % of control.
